Experimental data published in patent US7105534B2, “Imidazo[1,2-α]pyridine ether compounds as ion channel modulators” (Cardiome Pharma Corp., priority 2000, dated 2006).
Where a name gives a salt, the structure may show the parent alone.

Legend:
Sprague Dawley rats = test: Cardiovascular and behavioral effects: ECG changes during i.v. infusion in conscious rats; type: in vivo, rat
Method: Preparative surgery is performed in Sprague Dawley rats weighing 200–300 gm and anaesthetized with 65 mg/kg (i.p.) pentobarbital. The femoral artery and vein are cannulated using polyethylene (PE)-10 tubing. Prior to surgery, this PE-10 tubing had been annealed to a wider gauge (PE-50) tubing for externalization. The cannulated PE-10/PE-50 tubing is passed through a trocar and exteriorised together with three (lead II) limb ECG leads (see below). The trocar is threaded under the skin of the back and out through a small incision at the mid-scapular region. A ground ECG electrode is inserted subcutaneously using a 20 gauge needle with the lead wire threaded through it. To place the other ECG electrodes, a small incision is made in the anterior chest region over the heart and ECG leads are inserted into the subcutaneous muscle layer in the region of the heart using a 20 guage needle. Other ECG leads are inserted into the subcutaneous muscle layer in the region near the base of the neck and shoulder (right side). The animal is returned to a clean recovery-cage with free access to food and water. The treatment and observational period for each animal commenced after a 24-hour recovery period.
A 15 min observational period is recorded followed by the intravenous infusion regime of the test compound at an initial dose of 2.0 μmol/kg/min (at 1 ml/hr). This rate is doubled every 5 minutes until one of the following effects is observed:
Blood pressure (BP), heart rate (HR) and ECG variables are continuously recorded while behavioral responses are also monitored and the total accumulative drug dose and drug infusion rate at which the response (such as convulsion, piloerection, ataxia, restlessness, compulsive chewing, lip-smacking, wet dog shake etc.) occurred are recorded.
Electrocardiograph (ECG) parameters: PR, QRS, QT1 (peak of T-wave), QT2 (midpoint of T-wave deflection) and hemodynamic parameters: BP and HR are analyzed using the automated analysis function in LabView (National Instruments) with a customized autoanalysis software (Nortran Pharmaceuticals). The infused dose producing 25% from control (D25) for all recorded ECG variables is determined.
Table 2 describes the results of the tests as D25 (micromol/kg) which are the doses required to produce a 25% increase in the ECG parameter measured (ne=not estimated). The increases in P-R interval and QRS interval indicate cardiac sodium channel blockade while the increase in Q-T interval indicates cardiac potassium channel blockade.

CD-1 mice = test: Assessment of pain blockage: pin prick, mouse tail; type: in vivo; conditions: injection into lateral tail vein with tourniquet
Method: CD-1 mice (20–30 g) are restrained in an appropriate holder. A tourniquet is placed at the base of the tail and a solution of the test compound (50 μl, 5 mg/ml) is injected into the lateral tail vein. The tourniquet is removed 10 min after the injection. Suitable dilutions of compound solution are used to obtain an ED50 for pain blockade at various times after injection. Pain responses are assessed by pin prick at regular intervals up to 4 hours post injection and the duration of pain blockage is recorded for three animals for each test compound solution. Compounds of the present invention may be evaluated according to the method described.

hH1 Na+ current = biological target: T1, hH1 Na+ current (Homo sapiens, UniProt Q14524); test: Patch-clamp inhibition of cloned ion channel current in transfected HEK cells: Na; type: cell-based; conditions: peak hH1 Na+ current, -100 mV to -30 mV
T1 construct: expressed in transfected cells; host or cells: HEK cells, transient transfection, vector pCDNA3
T1 sequence (Q14524 whole entry): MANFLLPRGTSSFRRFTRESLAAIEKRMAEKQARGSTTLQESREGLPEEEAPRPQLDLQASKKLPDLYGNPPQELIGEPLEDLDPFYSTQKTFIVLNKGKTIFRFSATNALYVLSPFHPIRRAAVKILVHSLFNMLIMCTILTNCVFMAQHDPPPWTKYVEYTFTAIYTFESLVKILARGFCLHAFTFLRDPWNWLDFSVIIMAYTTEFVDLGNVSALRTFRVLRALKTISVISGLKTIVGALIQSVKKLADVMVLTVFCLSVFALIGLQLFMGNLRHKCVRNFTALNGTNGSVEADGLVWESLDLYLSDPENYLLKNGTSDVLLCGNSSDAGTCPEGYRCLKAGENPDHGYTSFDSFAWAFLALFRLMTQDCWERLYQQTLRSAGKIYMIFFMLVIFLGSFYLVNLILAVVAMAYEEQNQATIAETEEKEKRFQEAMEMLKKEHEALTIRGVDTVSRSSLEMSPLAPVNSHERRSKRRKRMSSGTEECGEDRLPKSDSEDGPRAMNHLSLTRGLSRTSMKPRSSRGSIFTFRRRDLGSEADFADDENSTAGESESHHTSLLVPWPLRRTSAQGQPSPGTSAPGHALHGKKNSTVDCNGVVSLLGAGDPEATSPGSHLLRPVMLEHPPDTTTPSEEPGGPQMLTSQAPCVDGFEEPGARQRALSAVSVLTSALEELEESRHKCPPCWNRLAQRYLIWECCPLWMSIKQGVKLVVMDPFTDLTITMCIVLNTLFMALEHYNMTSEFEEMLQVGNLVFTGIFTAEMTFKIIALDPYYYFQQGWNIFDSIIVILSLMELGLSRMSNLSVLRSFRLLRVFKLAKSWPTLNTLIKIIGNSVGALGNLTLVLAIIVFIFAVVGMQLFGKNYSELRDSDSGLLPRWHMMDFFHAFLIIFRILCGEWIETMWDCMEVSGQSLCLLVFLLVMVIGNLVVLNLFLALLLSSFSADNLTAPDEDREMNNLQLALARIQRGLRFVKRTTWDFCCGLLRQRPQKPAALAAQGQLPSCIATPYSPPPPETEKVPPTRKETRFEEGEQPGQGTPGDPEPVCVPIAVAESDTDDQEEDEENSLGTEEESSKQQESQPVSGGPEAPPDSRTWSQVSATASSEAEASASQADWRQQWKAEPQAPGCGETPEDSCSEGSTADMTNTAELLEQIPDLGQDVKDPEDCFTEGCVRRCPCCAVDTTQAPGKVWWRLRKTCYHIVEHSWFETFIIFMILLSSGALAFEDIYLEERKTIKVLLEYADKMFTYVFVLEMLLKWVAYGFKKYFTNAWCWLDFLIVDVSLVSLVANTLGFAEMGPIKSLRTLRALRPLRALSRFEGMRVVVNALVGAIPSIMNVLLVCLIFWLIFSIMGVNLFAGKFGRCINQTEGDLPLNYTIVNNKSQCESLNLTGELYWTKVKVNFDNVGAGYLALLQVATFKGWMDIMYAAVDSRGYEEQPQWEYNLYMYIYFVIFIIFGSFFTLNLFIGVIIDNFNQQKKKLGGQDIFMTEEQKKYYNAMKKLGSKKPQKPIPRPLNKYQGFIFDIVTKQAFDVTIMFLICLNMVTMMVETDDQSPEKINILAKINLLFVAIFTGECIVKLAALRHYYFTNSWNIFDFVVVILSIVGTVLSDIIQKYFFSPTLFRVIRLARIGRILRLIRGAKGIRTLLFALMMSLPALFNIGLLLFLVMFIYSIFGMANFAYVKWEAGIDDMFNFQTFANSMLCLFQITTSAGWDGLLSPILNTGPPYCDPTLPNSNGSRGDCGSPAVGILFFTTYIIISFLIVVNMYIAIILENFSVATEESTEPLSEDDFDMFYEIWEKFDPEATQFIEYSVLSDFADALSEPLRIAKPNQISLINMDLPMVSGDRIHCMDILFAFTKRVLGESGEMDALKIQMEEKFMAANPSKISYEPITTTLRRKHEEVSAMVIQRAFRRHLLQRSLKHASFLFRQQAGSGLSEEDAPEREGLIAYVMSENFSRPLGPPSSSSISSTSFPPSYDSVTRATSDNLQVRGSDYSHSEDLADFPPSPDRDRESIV
Method: (§1) The relevant cloned ion channels (e.g. cardiac hH1, Kv1.4, Kv1.5, Kv4.2, Kv2.1, HERG etc.) are studied by transient transfection into HEK cells using the mammalian expression vector pCDNA3. Transfections for each channel type are carried out separately to allow individual study of the ion channel of interest. Cells expressing channel protein are detected by cotransfecting cells with the vector pHook-1 (Invitrogen, San Diego, Calif., USA). […] Equal concentrations of individual channel and pHook DNA are incubated with 10× concentration of lipofectAce in Modified Eagle's Medium (MEM, Canadian Life Technologies) and incubated with parent HEK cells plated on 25 mm culture dishes. After 3–4 hours the solution is replaced with a standard culture medium plus 20% fetal bovine serum and 1% antimycotic. Transfected cells are maintained at 37C in an air/5% CO2 incubator in 25 mm Petri dishes plated on glass coverslips for 24–48 hours to allow channel expression to occur. 20 min prior to experiments, cells are treated with beads coated with phOX. After 15 min, excess beads are […] off with cell culture medium and cells which had beads stuck to them are used for electrophysiological tests.
(§2) For whole-cell recording the control pipette filling solution contained (in mM): KCl, 130; EGTA, 5; MgCl2, 1; HEPES, 10; Na2ATP, 4; GTP, 0.1; and is adjusted to pH 7.2 with KOH. The control bath solution contained (in mM): NaCl, 135; KCI, 5; sodium acetate, 2.8; MgCl2, 1; HEPES, 10; CaCl2, 1; and is adjusted to pH 7.4 with NaOH. The test ion channel modulating compound is dissolved to 10 mM stock solutions in water and used at concentrations between 0.5 and 100 μM.
(§3) Coverslips containing cells are removed from the incubator before experiments and placed in a superfusion chamber (volume 250 μl) containing the control bath solution at 22C to 23C. All recordings are made via the variations of the patch-clamp technique, using an Axopatch 200A amplifier (Axon Instruments, CA). Patch electrodes are pulled from thin-walled borosilicate glass (World Precision Instruments; FL) on a horizontal micropipette puller, fire-polished, and filled with appropriate solutions. Electrodes had resistances of […] when filled with control filling solution. Analog capacity compensation is used in all whole cell measurements. In some experiments, leak subtraction is applied to data. Membrane potentials have not been corrected for any junctional potentials that arose between the pipette and bath solution. Data are filtered at 5 to 10 kHz before digitization and stored on a microcomputer for later analysis using the pClamp6 software (Axon Instruments, Foster City, Calif.). Due to the high level of expression of channel cDNA's in HEK cells, there is no need for signal averaging. The average cell capacitance is quite small, and the absence of ionic current at negative membrane potentials allowed faithful leak subtraction of data.
(§4) The concentration-response curves for changes in peak and steady-state current produced by the test compound are computer-fitted to the Hill equation: f=1−1/[1+([…])^n] [1]
(§5) where f is the fractional current (f=Idrug/Icontrol) at drug concentration [D]; IC50 is the concentration producing half-maximal inhibition and n is the Hill coefficient.
(§6) Compounds of the present invention may be evaluated by this method. […] Block is determined from the decrease in peak hH1 Na^+ current, or in steady-state Kv1.5 and integrated Kv4.2 current in the presence of drug. To record Na^+ current, cells are depolarized from the holding potential of −100 mV to a voltage of −30 mV for 10 ms to fully open and inactivate the channel. To record Kv1.5 and Kv4.2 current, cells are depolarized from the holding potential of −80 mV to a voltage of +60 mV for 200 ms to fully open the channel. Currents are recorded in the steady-state at a range of drug concentrations during stimulation every 4 s. […]

Kv1.5 = biological target: T2, Kv1.5 (Homo sapiens, UniProt P22460); test: Patch-clamp inhibition of cloned ion channel current in transfected HEK cells: Kv1.5; type: cell-based; conditions: steady-state current, -80 mV to +60 mV
T2 construct: expressed in transfected cells; host or cells: HEK cells, transient transfection, vector pCDNA3
T2 sequence (P22460 whole entry): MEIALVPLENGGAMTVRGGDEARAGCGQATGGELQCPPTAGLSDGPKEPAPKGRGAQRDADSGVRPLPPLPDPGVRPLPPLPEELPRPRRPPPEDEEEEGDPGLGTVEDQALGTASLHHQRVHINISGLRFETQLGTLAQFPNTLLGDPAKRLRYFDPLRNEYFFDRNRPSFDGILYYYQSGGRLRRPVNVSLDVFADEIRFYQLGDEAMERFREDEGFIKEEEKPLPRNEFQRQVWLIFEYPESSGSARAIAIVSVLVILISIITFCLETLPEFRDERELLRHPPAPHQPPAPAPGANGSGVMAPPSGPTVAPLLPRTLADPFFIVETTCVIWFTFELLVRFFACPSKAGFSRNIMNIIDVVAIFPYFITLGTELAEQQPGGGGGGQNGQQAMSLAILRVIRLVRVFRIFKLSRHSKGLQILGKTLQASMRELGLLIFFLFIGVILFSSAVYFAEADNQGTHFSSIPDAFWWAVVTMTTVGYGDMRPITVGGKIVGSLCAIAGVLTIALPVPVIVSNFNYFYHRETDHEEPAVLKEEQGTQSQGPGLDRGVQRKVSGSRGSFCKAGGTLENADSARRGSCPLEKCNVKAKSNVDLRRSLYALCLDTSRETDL
Method: as §1, §2, §3, §4, §5, §6

Kv4.2 = biological target: T3, Kv4.2 (Homo sapiens, UniProt Q9NZV8); test: Patch-clamp inhibition of cloned ion channel current in transfected HEK cells: Kv4.2; type: cell-based; conditions: integrated current, -80 mV to +60 mV
T3 construct: expressed in transfected cells; host or cells: HEK cells, transient transfection, vector pCDNA3
T3 sequence (Q9NZV8 1-630): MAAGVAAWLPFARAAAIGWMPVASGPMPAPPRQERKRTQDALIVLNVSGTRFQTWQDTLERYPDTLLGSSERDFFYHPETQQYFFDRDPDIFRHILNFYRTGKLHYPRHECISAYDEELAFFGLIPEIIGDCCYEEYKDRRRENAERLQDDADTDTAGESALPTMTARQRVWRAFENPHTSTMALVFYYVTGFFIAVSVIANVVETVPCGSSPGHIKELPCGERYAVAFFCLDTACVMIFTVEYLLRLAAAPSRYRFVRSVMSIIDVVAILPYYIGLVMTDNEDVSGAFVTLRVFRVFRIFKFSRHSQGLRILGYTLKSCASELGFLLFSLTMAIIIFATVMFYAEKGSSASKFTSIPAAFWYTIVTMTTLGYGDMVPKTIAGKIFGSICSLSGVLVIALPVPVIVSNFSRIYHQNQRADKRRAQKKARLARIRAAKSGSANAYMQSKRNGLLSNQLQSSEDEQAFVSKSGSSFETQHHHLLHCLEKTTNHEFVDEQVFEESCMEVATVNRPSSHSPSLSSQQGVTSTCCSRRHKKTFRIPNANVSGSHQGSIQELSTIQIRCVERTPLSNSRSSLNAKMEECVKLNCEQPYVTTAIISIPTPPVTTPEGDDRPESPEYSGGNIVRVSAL
Method: as §1, §2, §3, §4, §5, §6

HERG = biological target: T4, HERG (Homo sapiens, UniProt Q12809); test: Patch-clamp inhibition of cloned ion channel current in transfected HEK cells: HERG; type: cell-based; conditions: whole-cell patch clamp
T4 construct: expressed in transfected cells; host or cells: HEK cells, transient transfection, vector pCDNA3
T4 sequence (Q12809 whole entry): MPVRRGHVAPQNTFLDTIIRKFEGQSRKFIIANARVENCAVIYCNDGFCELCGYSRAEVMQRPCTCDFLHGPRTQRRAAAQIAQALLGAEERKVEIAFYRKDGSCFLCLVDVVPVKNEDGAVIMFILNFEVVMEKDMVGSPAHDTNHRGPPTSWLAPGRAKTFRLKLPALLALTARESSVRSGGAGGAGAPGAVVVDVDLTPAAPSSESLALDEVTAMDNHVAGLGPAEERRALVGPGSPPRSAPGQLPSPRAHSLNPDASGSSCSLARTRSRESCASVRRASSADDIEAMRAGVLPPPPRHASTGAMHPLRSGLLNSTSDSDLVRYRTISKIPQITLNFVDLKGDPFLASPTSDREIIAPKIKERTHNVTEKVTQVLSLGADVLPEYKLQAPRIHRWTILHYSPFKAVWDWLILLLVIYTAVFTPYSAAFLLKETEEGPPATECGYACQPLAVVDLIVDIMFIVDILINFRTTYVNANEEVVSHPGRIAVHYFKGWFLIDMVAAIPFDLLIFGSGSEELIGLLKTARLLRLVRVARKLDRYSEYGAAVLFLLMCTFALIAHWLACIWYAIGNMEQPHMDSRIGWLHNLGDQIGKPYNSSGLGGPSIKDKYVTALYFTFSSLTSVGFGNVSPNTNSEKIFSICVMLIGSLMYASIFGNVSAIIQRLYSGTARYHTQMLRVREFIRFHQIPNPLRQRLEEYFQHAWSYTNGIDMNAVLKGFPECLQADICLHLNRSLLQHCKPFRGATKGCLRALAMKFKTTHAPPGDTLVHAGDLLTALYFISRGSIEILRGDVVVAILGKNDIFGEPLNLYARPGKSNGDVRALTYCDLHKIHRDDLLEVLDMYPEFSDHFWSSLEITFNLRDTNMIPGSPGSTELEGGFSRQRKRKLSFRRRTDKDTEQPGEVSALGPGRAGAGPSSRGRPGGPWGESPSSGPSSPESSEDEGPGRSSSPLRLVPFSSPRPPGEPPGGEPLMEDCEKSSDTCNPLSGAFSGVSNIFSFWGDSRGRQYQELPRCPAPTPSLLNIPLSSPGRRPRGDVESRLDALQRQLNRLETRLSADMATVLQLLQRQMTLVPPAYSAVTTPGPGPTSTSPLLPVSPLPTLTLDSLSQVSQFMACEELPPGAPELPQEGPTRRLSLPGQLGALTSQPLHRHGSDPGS
Method: as §1, §2, §3, §4, §5, §6

Mongrel dogs = test: Canine vagal-AF model: termination of sustained atrial fibrillation; type: in vivo, dog; conditions: IV
Method: Mongrel dogs of either sex weighing 15-49 kg are anesthetized with morphine (2 mg/kg im initially, followed by 0.5 mg/kg IV every 2 h) and α-chloralose (120 mg/kg IV followed by an infusion of 29.25 mg/kg/h; St.-Georges et al., 1997). Dogs are ventilated mechanically with room air supplemented with oxygen via an endotracheal tube at 20 to 25 breaths/minute with a tidal volume obtained from a nomogram. […] Catheters are inserted into the femoral artery for blood pressure recording and blood gas measurement, and into both femoral veins for drug administration and venous sampling. Catheters are kept patent with heparinized 0.9% saline solution. Body temperature is maintained at 37-40° C. with a heating blanket. […] Drug effects to terminate sustained AF maintained during continuous vagal nerve stimulation are assessed. […] The vagal stimulation voltage is adjusted under control conditions, and then readjusted after each treatment to maintain the same bradycardic effect. […] Diastolic threshold current is determined at a basic cycle length of 300 ms by increasing the current 0.1 mA incrementally until stable capture is obtained. […] Atrial and ventricular ERP is measured with the extrastimulus method, over a range of S1S2 intervals at a basic cycle length of 300 ms. […] Diastolic threshold and ERP are determined in duplicate and averaged to give a single value. […]

[1] = indicates cardiac sodium channel blockade

Cc1cn2cccc(OCCCc3ccc(Cl)cc3Cl)c2n1 (as salt: hydrochloride) [Compound 1, 8-[3-(2,4-DICHLOROPHENYL)PROPOXY]-2-METHYLIMIDAZO[1,2-α]PYRIDINEMONOHYDROCHLORIDE]
melting point: < 193 °C

Cc1cn2cccc(OCCCc3ccc(Cl)cc3Cl)c2n1 [Compound 1, 8-[3-(2,4-DICHLOROPHENYL)PROPOXY]-2-METHYLIMIDAZO[1,2-α]PYRIDINEMONOHYDROCHLORIDE]
D25 QT (dose required to produce a 25% increase in Q-T interval) (Sprague Dawley rats; indicates cardiac potassium channel blockade): 8 µmol/kg | D25 PR (dose required to produce a 25% increase in P-R interval) (Sprague Dawley rats; [1]): 14 µmol/kg | D25 QRS (dose required to produce a 25% increase in QRS interval) (Sprague Dawley rats; [1]): 12 µmol/kg | ED50 for pain blockade (CD-1 mice): 0.073 mg/tail | IC50 (hH1 Na+ current): 8000 nM | IC50 (Kv1.5): 300 nM | IC50 (Kv4.2): 2000 nM | IC50 (HERG): 100 nM

O=C(NCC1CCCCN1)c1cc(OCC(F)(F)F)ccc1OCC(F)(F)F (centres unmarked) [Flecainide]
Median dose required for termination of AF (Mongrel dogs): 2.5 µmol/kg | Mean dose required for termination of AF (Mongrel dogs; mean ±SEM): 4 ± 2 µmol/kg
